In US20240166687A1, “REGULATORY T CELL-INDUCING PEPTIDE AND COMPOSITION INCLUDING SAME FOR PREVENTING OR TREATING AUTOIMMUNE DISEASE” (IUCF-HYU (INDUSTRY-UNIVERSITY COOPERATION FOUNDATION …, priority 2021, published 2024):
Entries after “also recorded” stand apart in the source; their conditions may differ.

B1: KIKKVKKKGRKGSKIKKVKKKGRKGGAMLAAASPLTTGVYVKMPPTEPECEKQFQPYFIPIN (peptide)
chain: KIKKVKKKGRKGSKIKKVKKKGRKGGAMLAAASPLTTGVYVKMPPTEPECEKQFQPYFIPIN
notes: dNP2-ctCTLA-4 variant, K motif residues replaced with alanine

Key:
[1] = test system: Th17 cells differentiated from splenocytes isolated from mouse; experiment: Analysis of effect under Th17 differentiation conditions (flow cytometry of IL-17A and Foxp3); type: cell-based; conditions: sample 2 μM; for effect of suppressing immune response (decrease of IL-17 and increase of Foxp3): flow cytometry 4 days later, comparator as named in the value (Th17/PBS control, K1, AP-K2)
Text: Th17 cells are a subset of CD4 T cells. The Th17 cells are known to secrete a cytokine known as IL-17 and cause inflammation. This is the major cause of autoimmune disease. And, Treg cells (regulatory T cells) are known to suppress and regulate inflammation by expressing the transcription factor called Foxp3. Accordingly, since it is thought that the effect of preventing and treating autoimmune disease may be achieved by regulating inflammation by inhibiting Th17 cells (IL-17) and increasing Treg (Foxp3) cells, the effect of the peptides of the present disclosure was investigated.
Undifferentiated CD4 T cells (naive CD4 T cells) were isolated from splenocytes of 6- to 8-week-old C57BL/6 mice using a mouse undifferentiated CD4+ T cell (naive CD4 T cell) isolation kit (Miltenyi Biotec, Auburn, CA, USA) according to the manufacturer's protocols. For RNAseq, the undifferentiated CD4 T cells (naive CD4 T cells) from the Foxp3-GFP mice were purified, differentiated into Th17 cells and sorted into Foxp3^+ and Foxp3^− populations using a cell sorter (FACS Aria cell sorter BD Biosciences, Franklin Lakes, NJ, USA). The purified undifferentiated CD4 T cells (naive CD4 T cells) were activated with plate-bound anti-CD3 (2 or 5 μg/mL, 553057; BD Pharmingen, La Jolla, CA) and anti-CD28 (2 or 5 μg/mL, 553294; BD Pharmingen, La Jolla, CA) antibodies and differentiated by treating with the following cytokine cocktails in a 96-well plate for 3 or 4 days: Th0; recombinant human TGF-β(R&D Systems) 0.25 ng/mL. Th1; anti-IL-4 (11B11; 16-7041-85; eBioscience) 5 μg/mL, IL-2 (212-12; Peprotech, Rocky Hill, NJ) 50 U/mL, recombinant murine IL-12 (212-12; Peprotech) 2 ng/mL, recombinant human TGF-β (R&D Systems) for Th1 0.25 ng/mL. Th17; anti-IFN-γ (XMG1.2; 16-7311-85; eBioscience) 5 μg/mL, anti-IL-4 (11B11; 16-7041-85; eBioscience) 5 μg/mL, recombinant murine TGF-β (7666-MB, R&D Systems, Minneapolis, MN) 2 ng/mL, IL-6 (216-16; Peprotech) 30 ng/mL, IL-23 (1887-ML-101; R&D Systems) 20 ng/mL, IL-1β (401-ML-010; R&D Systems) 20 ng/mL, and IL-2 (Peprotech) 50 U/mL. Treg; IL-2 (Peprotech) 50 U/mL and TGF-β (R&D Systems) 0.5 ng/mL.
The cells were cotreated with the cytokine cocktails and the samples (2 μM). 4 days later, they were analyzed by flow cytometry using IL-17 and Foxp3 fluorescent antibodies. In some experiments, 5 μM PKC-η pseudosubstrate inhibitor (sc-3096; Santa Cruz) or 5 μM ERK inhibitor (UO126, 662005; Sigma) were also added.
For flow cytometric analysis of living cells only, dead cells were excluded using the Zombie Aqua™ fixable viability kit (Biolegend) before staining with antibodies at room temperature for 10 minutes. After washing, surface proteins of the differentiated Th1, Th17 and Treg cells were stained with monoclonal antibodies at 4° C. for 15 minutes. To determine intracellular cytokine levels, the cells were restimulated with a cell stimulation cocktail (plus protein transport inhibitors) (ThermoFisher) at 37° C. for 4 hours and then stained with surface marker antibodies. The cells were then fixed, permeabilized using a Foxp3/transcription factor staining buffer set (eBioscience) and stained with anti-mouse IFN-γ, anti-mouse IL-17 and anti-mouse Foxp3. The cells were analyzed using a FACS Canto II flow cytometer and the FlowJo software version 10.7.

[2] = test system: multiple sclerosis animal model; experiment: Analysis of efficiency in multiple sclerosis (MS) animal model (MOG35-55/CFA + PTX); type: in vivo, C57BL/6 mice; conditions: for clinical symptoms (clinical score): 100 μg (5 mg/kg) intraperitoneally once a day from day 7 after PTX; for clinical symptoms (clinical score) / number of Treg cells (spinal cord) / number of infiltrated lymphocytes in the spinal cord: comparator as named in the value
Protocol: 8-week-old female C57BL/6 mice were purchased from Orient Bio (Daejeon, Korea). All animal experiments were conducted in compliance with the animal experiment operation regulations of the Institutional Animal Care and Use Committee of Hanyang University. The mice were acclimatized for 2 weeks before the experiment. The mice were raised in a breeding room maintained at temperature 22±2° C. and 40-60% humidity with free access to feed. The light and dark cycles were adjusted at 12-hour intervals. Multiple sclerosis was induced by subcutaneous immunization using a MOG35-55/CFA emulsion PTX kit (Hooke Labs, Lawrence, MA, USA) according to the manufacturer's protocol. The mice were anesthetized with isoflurane and MOG35-55/CFA was subcutaneously injected bilaterally, followed by intraperitoneal injection of PTX (pertussis toxin) 2 hours and 24 hours later. The mice were randomly assigned to different groups after MOG immunization. Because paralysis due to immune response begins on day 7 after the injection of PTX, 100 μg (5 mg/kg) of the samples according to the present disclosure were intraperitoneally injected to the groups once a day from day 7. Each group was monitored every day after inducing multiple sclerosis and clinical symptoms were recorded. The clinical symptoms were evaluated based on the scoring system described in Table 2. The higher clinical scores indicate severer symptoms. The mice were euthanized at the end of the experiments and lymphocytes were isolated from the spinal cords. The isolated spinal cords were treated at 37° C. with 1 mg/mL of DNase 1 (10104159001; Sigma-Aldrich) and 1 mg/mL of collagenase D (11088866001; Sigma-Aldrich) and incubated at 80 rpm on a shaker for 40 minutes. After the enzyme treatment, 500 mM EDTA was added and lymphocytes were isolated by Percoll (GE Healthcare, Little Chalfont, UK) density-gradient centrifugation. The isolated infiltrated lymphocytes were restimulated with a cell stimulation cocktail (plus protein transport inhibitors) (ThermoFisher) at 37° C. for 4 hours and stained with anti-mouse CD4. The cells were fixed, permeabilized using a Foxp3/transcription factor staining buffer set (eBioscience) and stained with anti-mouse IFN-γ, anti-mouse IL-17 or anti-mouse Foxp3. The cells were analyzed using a FACS Canto flow cytometer and the FlowJo software version 10.7.1. For histological analysis, paraffin blocks of the spinal cord tissues were deparaffinized and treated with luxol fast blue. For combination staining, hematoxylin and eosin were used (Dako). The cells infiltrated in the white matter region of the spinal cord tissues were counted using the Image J software version 2.0.0. The increased number of Th1 and Th17 immune cells in the spinal cord means more severe multiple sclerosis, and the increased number of Treg cells means that the function of preventing or treating autoimmune disease such as multiple sclerosis is improved as the tolerance to self-antigens is maintained and the excessive response by the immune system is prevented.

[3] = 100 μg intraperitoneally once a day from day 7

Molecule	effect of inhibiting the IL-17 cytokine compared to the dNP2-ctCTLA-4 group ([1]; 4 days)	reduction of IL-17 as compared to the control group ([1]; 4 days, CD4+IL-17A+ T cells)	increase of Foxp3 as compared to the control group ([1]; 4 days, CD4+foxp3+ T cells) [times]	effect of suppressing immune response (decrease of IL-17 and increase of Foxp3) [1]	clinical symptoms (clinical score) [2]	number of regulatory T cells (Treg) compared to dNP2-ctCTLA-4 [2, 3]	number of Treg cells (spinal cord) [2, 3]	number of infiltrated lymphocytes in the spinal cord [2, 3]	number of infiltrated lymphocytes in the spinal cord, ranking among the groups ([2]; 100 μg intraperitoneally once a day from day 7 to day 13, groups K2, AP-K2, Myr-K2, Myr-K3)	expression of IL-17 T cells, IFN-γ T cells and Foxp3 T cells compared to PBS ([2]; 100 μg intraperitoneally once a day from day 7 to day 13, spinal cord lymphocytes)	function of inhibiting myelin damage (histological analysis of the spinal cord) ([2]; 100 μg intraperitoneally once a day from day 7 to day 14, luxol fast blue, H&E)
RRRWCKRRRGGKMLKKRSKMLKKRS (AP-K2)	remarkably superior effect of inhibiting the IL-17 cytokine as compared to the dNP2-ctCTLA-4 group	reduced IL-17 to half or less	≥ 5	significantly better effect of suppressing immune response than the PBS (control group)	significantly improved results for clinical symptoms as compared to the PBS (control group); also recorded: significantly improved result for clinical symptoms as compared to the PBS group	an increase comparable to that of dNP2-ctCTLA-4	significantly number of regulatory T cells (Treg) as compared to the PBS (control group)	significantly smaller number of infiltrated lymphocytes in the spinal cord as compared to the PBS (control group), dNP2 and AP groups; also recorded: significantly smaller number of infiltrated lymphocytes in the spinal cord than the PBS (control group)	most superior effects	inhibited expression of II-17 T cells and IFN-γ T cells and increase of Foxp3 T cells as compared to the PBS (control group)	–
RRRWCKRRRGGKMLKKRSKMLKKRSKMLKKRS (AP-K3)	remarkably superior effect of inhibiting the IL-17 cytokine as compared to the dNP2-ctCTLA-4 group	–	–	significantly better effect of suppressing immune response than the PBS (control group)	significantly improved results for clinical symptoms as compared to the PBS (control group)	–	significantly number of regulatory T cells (Treg) as compared to the PBS (control group)	significantly smaller number of infiltrated lymphocytes in the spinal cord as compared to the PBS (control group), dNP2 and AP groups	–	–	–
B1	–	–	–	the function of the decrease of IL-17 and the increase of Foxp3 was lost	significantly lower clinical symptoms as compared to the PBS group	–	smallest number of Treg cells	significantly larger number of infiltrated lymphocytes in the spinal cord as compared to the PBS group	–	–	the function of inhibiting myelin damage was lost
